Measured values: PMC8555766, “Paradoxical Potentiation of Acid-Sensing Ion Channel 3 (ASIC3) by Amiloride via Multiple Mechanisms and Sites Within the Channel” (Frontiers in Physiology, 2021)
Numbering of substitutions follows the chain as printed.

What was measured:
ASIC3 G445C = target: T1, ASIC3 G445C (Rattus norvegicus, UniProt O35240, G445C); test: whole-cell patch clamp, block of pH 6-evoked currents; assay type: cell-based
T1 construct: rASIC3 G445C co-expressed with wildtype ASIC3 at a 10:1 ratio in CHO-K1 cells; with wildtype ASIC3 (heteromultimeric channels)
T1 sequence (O35240 1-533 G445C): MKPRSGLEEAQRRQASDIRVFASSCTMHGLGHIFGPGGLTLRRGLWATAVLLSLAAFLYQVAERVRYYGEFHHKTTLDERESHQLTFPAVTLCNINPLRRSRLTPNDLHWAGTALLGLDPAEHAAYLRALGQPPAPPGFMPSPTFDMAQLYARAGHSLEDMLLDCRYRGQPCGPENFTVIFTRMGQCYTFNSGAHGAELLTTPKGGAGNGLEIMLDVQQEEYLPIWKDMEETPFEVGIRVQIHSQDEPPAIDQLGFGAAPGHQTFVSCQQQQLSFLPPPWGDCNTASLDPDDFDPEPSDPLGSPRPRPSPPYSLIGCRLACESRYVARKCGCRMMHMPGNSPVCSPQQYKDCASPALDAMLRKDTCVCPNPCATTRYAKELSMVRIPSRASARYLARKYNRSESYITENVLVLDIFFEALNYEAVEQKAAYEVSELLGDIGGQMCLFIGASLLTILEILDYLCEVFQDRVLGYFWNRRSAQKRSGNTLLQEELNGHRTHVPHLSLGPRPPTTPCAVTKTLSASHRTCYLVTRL
From the text: whole-cell patch clamp, block of pH 6-evoked currents on ASIC3 G445C | G445C mutation partially blunted the inhibitory action of amiloride on ASIC3 currents when compared to wildtype ASIC3 channels

[1] = target: T2, Acid-Sensing Ion Channel 3 (ASIC3) (Rattus norvegicus, UniProt O35240); test: as above; assay type: cell-based
T2 construct: Rat ASIC3 in pMT3 vector, expressed in CHO-K1 cells
T2 sequence (O35240 1-533): T1 sequence (O35240 1-533 G445C) with C445G

N=C(N)NC(=O)c1nc(Cl)c(N)nc1N [amiloride] showed an IC50 (ASIC3 G445C) of 17.3 µM and an IC50 [1] of 18.6 µM.
